Experimental data taken from paper PMC9867837 (Cancer letters, 2022).
Read-outs that look alike come from different tables or passages of the source. Non-standard residues stand in square brackets, D forms with d. No end group written: not given here. pY = N[C@@H](Cc1ccc(OP(=O)(O)O)cc1)C(=O)O

Key:
[1] = tested on: MDA-MB-231 cells; assay: CyQuant viable cell number assay, MDA-MB-231; format: cell-based, human
Description: (§1) CyQuant assay was performed to evaluate compounds as previously reported. Details are presented in Supplementary Information, “Methods”. […]
(§2) 1.2.6. Cell viability assays
(§3) CyQuant assay was performed to evaluate compounds as previously reported [1 -3] . Briefly, cells (5 x 10^3 per well, 100 µl) in culture in 96-well plates were treated once with 0 -10 µM concentrations of H120, H105, […]
(§4) concentration of H182 for 6 h and then treated with 0- 100 nM docetaxel or 0-20 µM cisplatin for a total of 72 h. Viable cell numbers were assessed by a CyQuant cell proliferation kit according to the manufacturer’s instructions (Thermo/Life Technologies Corp, Carlsbad, CA). Viable cell numbers were normalized to that of DMSO (control)-treated samples. […]

[2] = target: T1, Stat3:Stat3 DNA-binding activity (Mus musculus, UniProt P42227); assay: EMSA of Stat3:Stat3 DNA-binding activity in nuclear extracts; format: biochemical; conditions: for Stat3-inhibitory potency on replacing the para-fluorine: EMSA
T1 construct: endogenous in cells; host or cells: NIH3T3/v-Src fibroblasts; EGF-stimulated NIH3T3/hEGFR fibroblasts (nuclear extracts)
T1 sequence (P42227 2-770 limits assumed): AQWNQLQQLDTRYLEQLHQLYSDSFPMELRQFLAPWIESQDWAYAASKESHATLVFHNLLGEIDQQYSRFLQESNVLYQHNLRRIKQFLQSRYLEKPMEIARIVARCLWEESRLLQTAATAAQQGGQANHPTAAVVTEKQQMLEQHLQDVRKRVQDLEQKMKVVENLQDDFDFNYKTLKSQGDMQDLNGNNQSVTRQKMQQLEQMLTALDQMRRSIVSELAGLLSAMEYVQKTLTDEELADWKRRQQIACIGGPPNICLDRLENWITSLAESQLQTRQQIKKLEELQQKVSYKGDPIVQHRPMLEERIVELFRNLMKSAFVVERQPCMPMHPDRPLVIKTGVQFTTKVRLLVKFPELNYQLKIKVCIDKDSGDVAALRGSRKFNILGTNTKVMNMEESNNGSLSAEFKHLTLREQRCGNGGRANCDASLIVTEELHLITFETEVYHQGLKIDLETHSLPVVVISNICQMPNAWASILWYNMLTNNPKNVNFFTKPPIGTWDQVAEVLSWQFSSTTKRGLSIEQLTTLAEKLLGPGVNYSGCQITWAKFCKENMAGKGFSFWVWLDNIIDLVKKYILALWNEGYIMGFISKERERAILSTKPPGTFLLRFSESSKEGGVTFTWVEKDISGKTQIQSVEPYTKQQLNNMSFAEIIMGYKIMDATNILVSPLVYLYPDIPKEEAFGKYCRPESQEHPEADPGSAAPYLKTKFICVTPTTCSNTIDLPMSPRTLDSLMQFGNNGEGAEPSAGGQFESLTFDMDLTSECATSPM
Description: (§5) Details are presented in Supplementary Information, “Methods”. […]
(§6) min, prior to incubation with the radiolabeled probe for 30 min at 30 °C and subjecting to EMSA analysis.
(§7) In another case, the nuclear extract was pre-incubated with the radiolabeled probe for 30 min at 30 °C prior to incubation with increasing concentration of H182 at room temperature for 30 min and subjecting to EMSA analysis. Bands corresponding to Stats DNA- binding activities were scanned and quantified using ImageJ and plotted as a percentage of control (vehicle) against the concentration of the inhibitor, from which the IC50 values were derived .

[3] = target: SH2 domain of pure recombinant Stat3 (Homo sapiens, UniProt P40763); assay: Stat3 fluorescence polarization (FP) assay; format: binding; conditions: 0–10 μM, 5-carboxyfluorescein-GpYLPQTV-NH2 probe
Sequence of SH2 domain of pure recombinant Stat3 (P40763 whole entry, the tested form may be a part): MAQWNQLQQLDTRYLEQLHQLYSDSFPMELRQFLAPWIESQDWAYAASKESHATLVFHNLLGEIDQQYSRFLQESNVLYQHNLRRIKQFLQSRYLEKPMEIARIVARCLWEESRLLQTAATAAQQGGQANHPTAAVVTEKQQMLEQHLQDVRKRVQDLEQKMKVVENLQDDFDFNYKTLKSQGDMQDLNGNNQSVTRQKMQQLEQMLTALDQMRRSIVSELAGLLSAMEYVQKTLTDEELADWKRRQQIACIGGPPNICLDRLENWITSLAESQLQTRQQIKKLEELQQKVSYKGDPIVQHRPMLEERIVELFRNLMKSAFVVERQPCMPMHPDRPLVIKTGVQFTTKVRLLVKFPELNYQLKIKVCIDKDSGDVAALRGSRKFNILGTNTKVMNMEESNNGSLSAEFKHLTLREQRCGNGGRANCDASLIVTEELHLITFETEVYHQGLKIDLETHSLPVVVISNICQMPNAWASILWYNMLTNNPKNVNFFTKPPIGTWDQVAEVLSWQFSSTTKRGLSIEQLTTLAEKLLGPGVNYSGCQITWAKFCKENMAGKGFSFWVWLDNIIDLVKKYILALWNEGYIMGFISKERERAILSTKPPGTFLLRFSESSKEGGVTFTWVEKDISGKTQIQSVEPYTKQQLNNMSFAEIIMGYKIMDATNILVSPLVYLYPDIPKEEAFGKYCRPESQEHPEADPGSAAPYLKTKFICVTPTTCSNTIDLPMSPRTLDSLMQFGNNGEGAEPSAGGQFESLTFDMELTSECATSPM
Description: Details are presented in Supplementary Information, “Methods”.
The Stat3:azetidine compound interaction was investigated further by focusing on how the compounds might interfere with Stat3 dimerization (Stat3:Stat3), which occurs via pTyr peptide:SH2 domain interaction. […]
confocal microscope (Stellaris 8-STED Super -resolution , Germany) with a 60x oil lens and images were processed by ImageJ software.
1.2.9. Fluorescence polarization assay (FP)
These studies were conducted as previously reported using the labeled phosphopeptide, 5-carboxyfluorescein GpYLPQTV-NH 2 (where pY represents phospho-Tyr) as probe and purified recombinant Stat3, with some modifications. […]
10 µM of unlabeled GpYLPQTV-NH 2 (positive control) or H182 at 30 °C for 30 min in the indicated assay buffer conditions, prior to the addition of the labeled probe at 10 nM final concentration and incubated for 30 min at room temperature, and thereafter reading the FP signal at 10, 30, and 60 min using the SpectraMax ID5 (Molecular Devices, San Jose, CA), with the set gain adjustment at 35 mP. In some cases, the recombinant His-Stat3 was pre-incubated with the unlabeled GpYLPQTV-NH 2 or H182 at 0-10 µM for 10 min or at 0-50 µM for 30 min prior to incubation with the labeled probe, and thereafter reading the FP signal at 10, 30, or 60 min using the SpectraMax ID5, with the set gain adjustment at 35 mP.
1.2.10. […]

[4] = target: T2, Stat1:Stat1 DNA-binding activity (Mus musculus, UniProt P42225); assay: EMSA of Stat1:Stat1 DNA-binding activity in nuclear extracts of EGF-stimulated NIH3T3/hEGFR; format: biochemical; conditions: Fig. 1C, 30 min
T2 construct: endogenous in cells; host or cells: EGF-stimulated NIH3T3/hEGFR fibroblasts (nuclear extract)
T2 sequence (P42225 2-749 limits assumed): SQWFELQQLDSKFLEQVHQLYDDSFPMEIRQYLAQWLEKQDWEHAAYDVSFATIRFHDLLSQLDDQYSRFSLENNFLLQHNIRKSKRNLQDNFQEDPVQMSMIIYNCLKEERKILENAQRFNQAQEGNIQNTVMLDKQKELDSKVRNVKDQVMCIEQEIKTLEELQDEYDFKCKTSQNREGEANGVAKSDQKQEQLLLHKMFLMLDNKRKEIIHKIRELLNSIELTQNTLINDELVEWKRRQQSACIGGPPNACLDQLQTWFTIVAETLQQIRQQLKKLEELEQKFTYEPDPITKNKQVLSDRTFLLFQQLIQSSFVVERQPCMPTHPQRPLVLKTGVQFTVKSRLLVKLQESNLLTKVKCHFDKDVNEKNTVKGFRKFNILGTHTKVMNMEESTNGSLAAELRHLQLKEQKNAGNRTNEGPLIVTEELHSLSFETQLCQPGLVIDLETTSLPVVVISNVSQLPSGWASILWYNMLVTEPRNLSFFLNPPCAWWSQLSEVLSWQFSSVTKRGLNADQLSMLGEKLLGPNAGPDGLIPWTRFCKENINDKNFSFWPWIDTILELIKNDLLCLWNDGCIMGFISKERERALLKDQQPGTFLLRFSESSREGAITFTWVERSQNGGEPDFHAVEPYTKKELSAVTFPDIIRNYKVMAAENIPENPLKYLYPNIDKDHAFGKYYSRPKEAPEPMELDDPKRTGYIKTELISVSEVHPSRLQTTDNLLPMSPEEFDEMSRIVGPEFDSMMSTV
Description: (§8) These studies were carried out as previously described using the ^32P-labeled oligonucleotide probes, hSIE (high affinity sis-inducible element from the c-fos gene, m67 variant, 5^′-[…]) that binds Stat1 and Stat3 [11, 12] and the mammary gland factor element (MGFe) from the bovine β–casein gene promoter (sense strand, 5^′-[…]) that binds Stat5 and Stat1 [11, 12]. Details are presented in Supplementary Information, “Methods”. […]
as §6, §7

[5] = target: T3, Stat1:Stat3 DNA-binding activity (Mus musculus, UniProt P42227); assay: EMSA of Stat1:Stat3 DNA-binding activity in nuclear extracts of EGF-stimulated NIH3T3/hEGFR; format: biochemical; conditions: Fig. 1C, hSIE probe, 30 min
T3 construct: endogenous in cells; host or cells: EGF-stimulated NIH3T3/hEGFR fibroblasts (nuclear extract)
T3 sequence (P42227 2-770 limits assumed, one chain of several): as the sequence (P42227 2-770 limits assumed) above
Description: as §5, §6, §7

[6] = target: Stat5:Stat5 DNA-binding activity; assay: EMSA of Stat5:Stat5 DNA-binding activity in nuclear extracts of EGF-stimulated NIH3T3/hEGFR; format: biochemical, mouse; conditions: Fig. 1C, MGFe probe, 30 min
Description: as §8, §6, §7

[7] = tested on: MDA-MB-468 cells; assay: CyQuant viable cell number assay, MDA-MB-468; format: cell-based, human; conditions: Homo sapiens, MDA-MB-468, 72 h, read-out: IC50 viable cell numbers, MDA-MB-468
Description: as §1, §2, §3, §4

[8] = tested on: MDA-MB-231 tumor xenografts; assay: Subcutaneous MDA-MB-231 xenografts in athymic nude mice; format: in vivo
Description: Mice were housed in specific pathogen-free conditions in the animal facility. All animal experiments were conducted in accordance with the recommendations in the Guide for the Care and Use of Laboratory Animals on a protocol approved by the Institutional Animal Care and Use Committee (IACUC). Subcutaneous xenograft studies were performed as previously reported. Five-week-old female athymic nude mice were purchased from Envigo (Indianapolis, IN) or Charles River (Wilmington, MA) and maintained in the institutional animal facilities approved by the American Association for Accreditation of Laboratory Animal Care. […] Tumor sizes were monitored every 3–4 days, measured with calipers, and converted to tumor volume, V, according to the formula V = 0.52 × a^2 × b, where a, smallest superficial diameter, and b, largest superficial diameter. For each treatment group, the tumor volumes for each set of measurements were statistically analyzed relative to the control (DMSO-treated; 70% DMSO with sterile PBS) group.
Constitutively-active Stat3 promotes primary tumor development and the progression to therapy resistance. We proceeded to evaluate the in vivo antitumor efficacy against tumor growth in both human xenograft and mouse syngeneic models of TNBC. In four separate studies, we tested the efficacy of H182, H278 (HCl salt of H182), and H120. For these xenografts, the human breast cancer, MDA-MB-231 cells were injected subcutaneously into athymic nude mice. When tumors were palpable (80–120 mm^3), mice were grouped so that the mean tumor sizes were identical between groups and treated as follows: A) intraperitoneal (IP) injections of H182 at 10 mg/kg every other day for 33 days; B) oral gavage of H182 every day at 5 mg/kg for 20 days, and then increased to 20 mg/kg for additional 12 days; and C) oral gavage of H120 at 20 mg/kg, daily for 14 days, and then increased to 30 mg/kg, daily for additional 14 days.

[9] = Table 1, replacement of p-fluorine (R1), read-out: EMSA IC50
[10] = first Stat1:Stat1 value listed (hSIE probe)
[11] = second Stat1:Stat1 value listed (MGFe probe)
[12] = Homo sapiens, MDA-MB-231, read-out: IC50 viable cell numbers, MDA-MB-231, CyQuant, 72 h
[13] = Fig. 1C, extracts of EGF-stimulated NIH3T3/hEGFR, hSIE probe, 30 min, read-out: IC50 Stat3:Stat3
[14] = range over the named compounds and incubation times, read-out: IC50 Stat3 DNA-binding activity in vitro (summary range)

| Stat3-inhibitory potency on replacing the para-fluorine [2] | IC50 [2, 9] [µM] | Compound | IC50 [4, 10] [µM] | IC50 [4, 11] [µM] | IC50 [5] [µM] | IC50 [1, 12] [µM] | IC50 [6] [µM] | IC50 [2, 13] [µM] | IC50 [2, 14] [µM] | IC50 [7] [µM] | also measured |
| --- | --- | --- | --- | --- | --- | --- | --- | --- | --- | --- | --- |
|  |  | N.N.[Cl][Pt][Cl] [cisplatin, reference compound] |  |  |  |  |  |  |  |  | IC50 ([1]; MDA-MB-231, DMSO or 1 μM H182 pre-treatment 6 h, then docetaxel or cisplatin, total 72 h, read-out: IC50 of chemotherapeutic agent alone or with H182): 7 µM |
| loss of Stat3-inhibitory potency | > 30 | O=C(O)c1ccc(N(Cc2cnc(C3CCCCC3)cn2)C(=O)[C@H]2CCN2S(=O)(=O)c2c(F)c(F)c(Cl)c(F)c2F)cc1O [Compound H186] |  |  |  |  |  |  |  |  |  |
|  |  | GpYLPQTV-NH2 (G[pY]LPQTV-NH2) [reference compound] |  |  |  |  |  |  |  |  | Effect on FP signal [3]: dose-dependent reduction of the FP signal down to the baseline of 45–50 mP |
|  |  | O=C(NO)c1ccc(N(Cc2ccc(C3CCCCC3)cc2)C(=O)[C@H]2CCN2S(=O)(=O)c2c(F)c(F)c(F)c(F)c2F)c(F)c1 [Compound H105] | 15.8 | > 20 | 8.3 | 2.6 to 3.6 | 20 | 1.8 | 1.75 to 2.07 | 2.6 to 3.6 |  |
| loss of Stat3-inhibitory potency | > 30 | O=C(O)c1ccc(N(Cc2cnc(C3CCCCC3)cn2)C(=O)[C@H]2CCN2S(=O)(=O)c2c(F)c(F)cc(F)c2F)cc1O [Compound H176] |  |  |  |  |  |  |  |  |  |
|  |  | O=C(NO)c1ccc(N(Cc2ccc(C3CCOCC3)cc2)C(=O)[C@H]2CCN2S(=O)(=O)c2c(F)c(F)c(F)c(F)c2F)cc1O [Compound H120] | > 20 | > 20 | 7.2 | 2.6 to 3.6 | > 20 | 2.1 | 1.75 to 2.07 | 2.6 to 3.6 | Tumor growth, MDA-MB-231 xenografts ([8]; H120 oral gavage daily 20 mg/kg for 14 days, then 30 mg/kg for 14 days): significant tumor growth inhibition; Body weights and obvious signs of toxicity ([8]; the three xenograft studies): No notable changes |
